Experimental findings from ChEMBL document CHEMBL1201862, “PubChem BioAssay data set” (2004) are described below.

Holding throughout (assay): DTP human tumour cell line panel, 48 h
Test [1] deals with OVCAR-4.
For test [2], the system named is HCT-116.
In test [3] the test system is A498.
Test [4] has as its system SN12C.
Test [5] concerns MDA-MB-435.
Test [6] has as its system SK-MEL-5.
Test [7] relates to UO-31.
Test [8] relates to SK-MEL-2.
Test [9] deals with MCF7.
Test [10] concerns M14.
The test system of test [11] is SK-OV-3.
The test system of test [12] is U-251.
The subject of test [13] is NCI-H226.
Test [14] concerns NCI/ADR-RES.
The test system of test [15] is SF-295.
Test [16] concerns UACC-62.
Test [17] relates to SNB-75.
Test [18] deals with T47D.
The test system of test [19] is CAKI-1.
In test [20] the test system is CCRF-CEM.

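Results reflect a 48-hour exposure of cells in 96-well plates to compound at five concentrations. GI50: concentration for 50% inhibition of growth.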 The source made the active and inactive calls. Rule as the data show it: active = GI50 up to about 1.1 µM and inactive = higher. Where only a bound is given, the exact number is not on record here.

As for `CCCCCCN1CCc2c(C)c(C#N)c3nc4ccccc4n3c21`, the GI50 is 25.9 µM (inactive) in test [1]; 16.5 µM (inactive) in test [2]; 76.6 µM (inactive) in test [3]; > 100 µM (inactive) in test [4]; 17 µM (inactive) in test [5]; 11.4 µM (inactive) in test [6]. For the same compound, the GI50 was > 100 µM (inactive) in test [7]; 22.2 µM (inactive) in [8]; 14.5 µM (inactive) in test [9]; 63.5 µM (inactive) in test [10]; > 100 µM (inactive) in test [11]; 12.4 µM (inactive) in test [12]. In addition, the GI50 in test [13] is > 100 µM (inactive); in test [14] it was > 100 µM (inactive); in [15], > 100 µM (inactive); in test [16] it was 30.1 µM (inactive); in [17], 32.4 µM (inactive).
For the compound `N#Cc1c2ccc([N+](=O)[O-])cc2c(=O)n2c1sc1ccc(C(F)(F)F)cc12`, the GI50 in [1], in test [2], in test [3], in test [18], in test [4] and in [5] was > 100 µM (inactive) in each case. Moreover, the GI50 in [6], in test [7], in test [10], in [11], in test [12] and in [13] was > 100 µM (inactive) throughout. Also, the GI50 in test [19], in [14], in test [15] and in [17] was > 100 µM (inactive) throughout.
As to `N#Cc1c2c(c(Nc3cccc(C(F)(F)F)c3)n3c1nc1ccccc13)CCCC2`, the GI50 in test [1] is 13.9 µM (inactive); in [2] it was 22.3 µM (inactive); in test [3], 26.8 µM (inactive); in test [18], > 100 µM (inactive); in test [4] it was 22.8 µM (inactive); in test [5] it was 28.4 µM (inactive). Also, the GI50 in test [6] was 60.8 µM (inactive); in test [11] it was 17.1 µM (inactive); in [12], 11.5 µM (inactive); in test [13], 26.5 µM (inactive); in [19], 22.5 µM (inactive); in [14], 14.8 µM (inactive). Also, the figures for the GI50 in test [15] and in test [17] were 21.8 µM (inactive) and 10.6 µM (inactive), respectively.
Take `C#CCCOC1(OC)N=NC(C)(C)O1` (stereo not given): the GI50 in test [1], in [2], in test [3], in test [18], in test [4] and in test [5] was > 100 µM (inactive) each time. For the same compound, the GI50 in test [20], in [6], in [7], in test [8], in test [10] and in [12] was > 100 µM (inactive) in each case. In addition, the GI50 in test [13], in test [14], in [15], in [16] and in test [17] was > 100 µM (inactive) in each case.
On to `CCOC(=O)C(NC(=O)c1ccccc1)(N1CCN(c2cc3c(cc2F)c(=O)c(C(=O)O)cn3C2CC2)CC1)C(F)(F)F` (stereo not given), for which the GI50 is 22.5 µM (inactive) in test [1]; 17.1 µM (inactive) in [2]; 28.1 µM (inactive) in test [3]; 20.6 µM (inactive) in test [18]; 26.4 µM (inactive) in test [4]; 21.1 µM (inactive) in test [5]. For the same compound, the GI50 in test [20] was 3.37 µM (inactive); in test [6], 15.8 µM (inactive); in test [7], 23 µM (inactive); in [8], 18.7 µM (inactive); in test [10], 19.6 µM (inactive); in test [11], 28.6 µM (inactive). Further, the GI50 in test [12] is 29.9 µM (inactive); in [13], 21.2 µM (inactive); in [19], 19.3 µM (inactive); in test [15], 27 µM (inactive); in test [16], 22 µM (inactive); in test [17], 24 µM (inactive).
On to `Cn1c2ccccc2c2c(-c3ccccc3)[n+]3ccccc3nc21`, for which the GI50 in test [1] is 61.7 µM (inactive); in test [3], > 100 µM (inactive); in [18] it was 51.5 µM (inactive); in [4], 25.8 µM (inactive); in [5] it was 20.6 µM (inactive); in test [20], 30.5 µM (inactive). Moreover, the GI50 was 16.8 µM (inactive) in test [6]; > 100 µM (inactive) in test [7]; 20.2 µM (inactive) in [8]; 18.1 µM (inactive) in [10]; > 100 µM (inactive) in test [11]; 24.8 µM (inactive) in [12]. The GI50 in [19] is > 100 µM (inactive); in test [14], > 100 µM (inactive); in test [15], 46.3 µM (inactive); in [16] it was 21.2 µM (inactive); in test [17], 19.5 µM (inactive).
On to `O=C(/C=C\c1ccccc1)Oc1ccc(/C=C2\CCCCC2=O)cc1`, for which the GI50 in test [1] was > 100 µM (inactive); in test [2], 26.1 µM (inactive); in test [3] it was > 100 µM (inactive); in [18], 92.5 µM (inactive); in [4], 55.3 µM (inactive); in [5], 26.8 µM (inactive). Further, the GI50 in test [20] is 4.98 µM (inactive); in test [6] it was 18.9 µM (inactive); in test [7], 64.7 µM (inactive); in test [8], 39.2 µM (inactive); in test [9], 39.5 µM (inactive); in test [10] it was 40.6 µM (inactive). For the same compound, the GI50 in [12] was 30.4 µM (inactive); in [19], 24.3 µM (inactive); in test [15], 41.2 µM (inactive); in [16], 0.1 µM (active); in [17], > 100 µM (inactive).
As to `CN(c1ccccc1Cl)S(=O)(=O)c1ccccc1`, the GI50 in test [1] is > 100 µM (inactive); in [2], 82.4 µM (inactive); in test [4], > 100 µM (inactive); in test [5], 76.6 µM (inactive); in test [20], > 100 µM (inactive); in [6], 34.9 µM (inactive). Also, the GI50 in test [7] was 52.4 µM (inactive); in test [8] it was > 100 µM (inactive); in [9], > 100 µM (inactive); in [10] it was > 100 µM (inactive); in test [11] it was 93.1 µM (inactive); in test [12], > 100 µM (inactive). Besides, the GI50 in [13], in test [19], in [14], in test [15], in test [16] and in test [17] was > 100 µM (inactive) each time.
As for `Cc1c(N/C=C(\C#N)C(=O)c2ccc(Cl)cc2)c(=O)n(-c2ccccc2)n1C`, the GI50 was > 100 µM (inactive) in test [1]; 80.7 µM (inactive) in [2]; 48.8 µM (inactive) in test [3]; > 100 µM (inactive) in test [4]; 34.9 µM (inactive) in test [5]; 38.9 µM (inactive) in test [20]. The GI50 in test [6] was 66.7 µM (inactive); in [7], 64.9 µM (inactive); in [8], 62.1 µM (inactive); in test [9] it was 62.1 µM (inactive); in test [10] it was > 100 µM (inactive); in test [11], > 100 µM (inactive). The GI50 was > 100 µM (inactive) in test [12]; 54 µM (inactive) in [13]; > 100 µM (inactive) in test [19]; 43.9 µM (inactive) in test [14]; > 100 µM (inactive) in test [15]; 59.3 µM (inactive) in [16]. The GI50 in [17] was > 100 µM (inactive).
With `CCOC(=O)C1=C(N2CCCC2)NC(=O)CC1=O`, the GI50 in test [1] was > 100 µM (inactive); in [2], > 100 µM (inactive); in [3] it was > 100 µM (inactive); in [18], 63 µM (inactive); in test [4], > 100 µM (inactive); in test [5] it was > 100 µM (inactive). In addition, the GI50 in test [20], in test [6], in test [7], in test [8], in [10] and in [11] was > 100 µM (inactive) each time. In addition, the GI50 in test [12], in test [13], in [19], in [14], in test [15] and in [16] was > 100 µM (inactive) each time.
Regarding `CN(CC(=O)O)c1ncc2c(n1)CCCC2`, the GI50 in [1], in test [2], in test [3], in test [4], in test [5] and in [20] was > 100 µM (inactive) each time. Moreover, the GI50 in [6], in test [7], in test [8], in test [9], in test [10] and in test [11] was > 100 µM (inactive) each time. Moreover, the GI50 in [12], in [13], in test [19], in test [14], in [15] and in test [16] was > 100 µM (inactive) throughout. For the same compound, the GI50 in [17] was > 100 µM (inactive).
